Laboratory results reported in patent publication US6737383B1, “Herbicidal oxadiazolidines” (priority 1999, dated 2004).

Assays:
bedstraw = assay: Test B pre/postemergence bedstraw; format: in vivo, Galium aparine; settings: Postemergence, Rate 500 g/ha; scale of 0 to 10 where 0 is no effect and 10 is complete control
In short: (§1)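 Response is a visual 0-to-10 score relative to untreated plants, where 0 means no effect and 10 means complete control, taken twelve to sixteen days after application. Treatments went onto soil at planting and onto foliage of 1- to 4-leaf plants, using a surfactant-containing non-phytotoxic solvent.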

blackgrass = assay: Test B pre/postemergence blackgrass; format: in vivo, Alopecurus myosuroides
In short: as §1

surinam grass = assay: Test B pre/postemergence surinam grass; format: in vivo, Brachiaria decumbens
In short: as §1

cocklebur = assay: Test B pre/postemergence cocklebur; format: in vivo, Xanthium strumarium
In short: as §1

corn = assay: Test B pre/postemergence corn; format: in vivo, Zea mays
In short: as §1

crabgrass = assay: Test B pre/postemergence crabgrass; format: in vivo, Digitaria sanguinalis
In short: as §1

giant foxtail = assay: Test B pre/postemergence giant foxtail; format: in vivo, Setaria faberii
In short: as §1

morningglory = assay: Test B pre/postemergence morningglory; format: in vivo, Ipomoea hederacea
In short: as §1

pigweed = assay: Test B pre/postemergence pigweed; format: in vivo, Amaranthus retroflexus
In short: as §1

rape = assay: Test B pre/postemergence rape; format: in vivo, Brassica napus
In short: as §1

soybean = assay: Test B pre/postemergence soybean; format: in vivo, Glycine max
In short: as §1

sugar beet = assay: Test B pre/postemergence sugar beet; format: in vivo, Beta vulgaris
In short: as §1

velvetleaf = assay: Test B pre/postemergence velvetleaf; format: in vivo, Abutilon theophrasti
In short: as §1

wheat = assay: Test B pre/postemergence wheat; format: in vivo, Triticum aestivum
In short: as §1

wild oat = assay: Test B pre/postemergence wild oat; format: in vivo, Avena fatua
In short: as §1

purple nutsedge = assay: Test B pre/postemergence purple nutsedge; format: in vivo, Cyperus rotundus
In short: as §1

rice = assay: Test B flood test rice; format: in vivo, Oryza sativa; settings: flood test species
In short: (§2)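 Plants were grown to the 2-leaf stage before treatment with test chemical, then held in a greenhouse for twelve to sixteen days. Injury was visually rated against untreated controls on a 0–10 scale, where 0 is no effect and 10 is complete control.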

smallflower flatsedge = assay: Test B flood test smallflower flatsedge; format: in vivo, Cyperus difformis; settings: flood test species
In short: as §2

duck salad = assay: Test B flood test duck salad; format: in vivo, Heteranthera limosa; settings: flood test species
In short: as §2

bamyardgrass = assay: Test B flood test barnyardgrass; format: in vivo, Echinochloa crus-galli; settings: flood test species
In short: as §2

[1] = Postemergence, Rate 125 g/ha, scale 0 to 10, 0 is no effect, 10 is complete control
[2] = Postemergence, Rate 250 g/ha, scale 0 to 10, 0 is no effect, 10 is complete control
[3] = Postemergence, Rate 500 g/ha, scale of 0 to 10 where 0 is no effect and 10 is complete control
[4] = Preemergence, Rate 62 g/ha, scale 0 to 10 (0 no effect, 10 complete control)
[5] = Preemergence, Rate 125 g/ha, scale of 0 to 10 where 0 is no effect and 10 is complete control
[6] = Preemergence, Rate 250 g/ha, scale of 0 to 10 where 0 is no effect and 10 is complete control
[7] = Preemergence, Rate 500 g/ha, scale 0 to 10, 0 is no effect, 10 is complete control
[8] = Rate 62 g/ha, Postemergence, scale of 0 to 10 where 0 is no effect and 10 is complete control
[9] = Preemergence, Rate 250 g/ha, scale 0 to 10, 0 is no effect, 10 is complete control
[10] = Rate 62 g/ha, Pre-emergence, visual evaluation after twelve to sixteen days
[11] = Rate 125 g/ha, under heading Pre-emergence, visual evaluation after twelve to sixteen days
[12] = Rate 500 g/ha, Pre-emergence, scale 0 to 10 (0 no effect, 10 complete control)

CC(C)Cn1c(=O)on(C(=O)N(c2ccccc2)C(C)C)c1=O [Compound 410]
Bedstraw plant response rating (bedstraw): 7 | Plant response rating, Blackgrass (blackgrass; [1]): 8 | Plant response rating, Blackgrass (blackgrass; [2]): 9 | Blackgrass plant response rating (blackgrass; [3]): 9 | Plant response rating, Blackgrass (blackgrass; [4]): 3 | Plant response rating, Blackgrass (blackgrass; [5]): 8 | Blackgrass plant response rating (blackgrass; [6]): 8 | Blackgrass plant response rating (blackgrass; [7]): 10 | Plant response rating, B. signalgrass (surinam grass; [1]): 0 | Plant response rating, B. signalgrass (surinam grass; [2]): 5 | B. signalgrass plant response rating (surinam grass; [3]): 7 | Plant response rating, B. signalgrass (surinam grass; [4]): 1 | Plant response rating, B. signalgrass (surinam grass; [5]): 5 | B. signalgrass plant response rating (surinam grass; [6]): 7 | B. signalgrass plant response rating (surinam grass; Preemergence, Rate 500 g/ha, scale of 0 to 10 where 0 is no effect and 10 is complete control): 10 | B. signalgrass plant response rating (surinam grass; [8]): 0 | Plant response rating, Cocklebur (cocklebur; [1]): 0 | Plant response rating, Cocklebur (cocklebur; [2]): 0 | Cocklebur plant response rating (cocklebur; [3]): 1 | Plant response rating, Cocklebur (cocklebur; [4]): 0 | Plant response rating, Cocklebur (cocklebur; [5]): 0 | Cocklebur plant response rating (cocklebur; [9]): 0 | Cocklebur plant response rating (cocklebur; [7]): 0 | Cocklebur plant response rating (cocklebur; [8]): 0 | Plant response rating, Corn (corn; [1]): 0 | Plant response rating, Corn (corn; [2]): 0 | Corn plant response rating (corn; [3]): 3 | Plant response rating, Corn (corn; [4]): 0 | Plant response rating, Corn (corn; [5]): 0 | Corn plant response rating (corn; [9]): 4 | Corn plant response rating (corn; [7]): 9 | Corn plant response rating (corn; [8]): 0 | Plant response rating, Crabgrass (crabgrass; [1]): 4 | Plant response rating, Crabgrass (crabgrass; [2]): 8 | Crabgrass plant response rating (crabgrass; [3]): 10 | Plant response rating, Crabgrass (crabgrass; [4]): 7 | Plant response rating, Crabgrass (crabgrass; [5]): 9 | Crabgrass plant response rating (crabgrass; [9]): 10 | Crabgrass plant response rating (crabgrass; [7]): 10 | Crabgrass plant response rating (crabgrass; [8]): 4 | Plant response rating, Giant foxtail (giant foxtail; [1]): 9 | Plant response rating, Giant foxtail (giant foxtail; [2]): 9 | Giant foxtail plant response rating (giant foxtail; [3]): 9 | Plant response rating, Giant foxtail (giant foxtail; [4]): 9 | Plant response rating, Giant foxtail (giant foxtail; [5]): 9 | Giant foxtail plant response rating (giant foxtail; [9]): 10 | Giant foxtail plant response rating (giant foxtail; [7]): 10 | Giant foxtail plant response rating (giant foxtail; [8]): 8 | Plant response rating, Morningglory (morningglory; [2]): 8 | Morningglory plant response rating (morningglory; [3]): 8 | Plant response rating, Morningglory (morningglory; [4]): 0 | Plant response rating, Morningglory (morningglory; [5]): 0 | Morningglory plant response rating (morningglory; [9]): 0 | Morningglory plant response rating (morningglory; [7]): 0 | Plant response rating, Redroot pigweed (pigweed; [2]): 0 | Redroot pigweed plant response rating (pigweed; [3]): 2 | Plant response rating, Redroot pigweed (pigweed; [4]): 0 | Plant response rating, Redroot pigweed (pigweed; [5]): 0 | Redroot pigweed plant response rating (pigweed; [9]): 2 | Redroot pigweed plant response rating (pigweed; [7]): 8 | Plant response rating, Rape (rape; [2]): 7 | Rape plant response rating (rape; [3]): 7 | Plant response rating, Rape (rape; [4]): 0 | Plant response rating, Rape (rape; [5]): 0 | Rape plant response rating (rape; [9]): 2 | Rape plant response rating (rape; [7]): 8 | Plant response rating, Soybean (soybean; [2]): 5 | Soybean plant response rating (soybean; [3]): 6 | Plant response rating, Soybean (soybean; [4]): 0 | Plant response rating, Soybean (soybean; [5]): 0 | Soybean plant response rating (soybean; [9]): 0 | Soybean plant response rating (soybean; [7]): 3 | Plant response rating, Sugarbeets (sugar beet; [2]): 7 | Sugarbeets plant response rating (sugar beet; [3]): 8 | Plant response rating, Sugarbeets (sugar beet; [4]): 0 | Plant response rating, Sugarbeets (sugar beet; [5]): 0 | Sugarbeets plant response rating (sugar beet; [9]): 0 | Sugarbeets plant response rating (sugar beet; [7]): 0 | Plant response rating, Velvetleaf (velvetleaf; [2]): 0 | Velvetleaf plant response rating (velvetleaf; [3]): 0 | Plant response rating, Velvetleaf (velvetleaf; [4]): 3 | Plant response rating, Velvetleaf (velvetleaf; [5]): 4 | Velvetleaf plant response rating (velvetleaf; [9]): 6 | Velvetleaf plant response rating (velvetleaf; [7]): 8 | Wheat plant response rating (wheat; [3]): 4 | Plant response rating, Wheat (wheat; [4]): 0 | Plant response rating, Wheat (wheat; [5]): 3 | Wheat plant response rating (wheat; [9]): 7 | Wheat plant response rating (wheat; [7]): 8 | Wild oats plant response rating (wild oat; [3]): 5 | Plant response rating, Wild oats (wild oat; [4]): 3 | Plant response rating, Wild oats (wild oat; [5]): 6 | Wild oats plant response rating (wild oat; [9]): 7 | Wild oats plant response rating (wild oat; [7]): 10 | Plant response rating, Nutsedge (purple nutsedge; [2]): 0 | Nutsedge plant response rating (purple nutsedge; [3]): 0 | Plant response rating, Nutsedge (purple nutsedge; [4]): 0 | Plant response rating, Nutsedge (purple nutsedge; [5]): 0 | Nutsedge plant response rating (purple nutsedge; [9]): 0 | Plant response rating, Rice (0 to 10 scale, 0 is no effect, 10 is complete control) (rice; [10]): 0 | Rice plant response rating (0 to 10 scale, 0 is no effect, 10 is complete control) (rice; [11]): 0 | Rice plant response rating (rice; [12]): 5 | Plant response rating, S. Flatsedge (0 to 10 scale, 0 is no effect, 10 is complete control) (smallflower flatsedge; [10]): 3 | S. Flatsedge plant response rating (0 to 10 scale, 0 is no effect, 10 is complete control) (smallflower flatsedge; [11]): 3 | S. Flatsedge plant response rating (smallflower flatsedge; [12]): 9 | Plant response rating, Ducksalad (0 to 10 scale, 0 is no effect, 10 is complete control) (duck salad; [10]): 0 | Ducksalad plant response rating (0 to 10 scale, 0 is no effect, 10 is complete control) (duck salad; [11]): 0 | Ducksalad plant response rating (duck salad; [12]): 2 | Plant response rating, Barnyardgrass (0 to 10 scale, 0 is no effect, 10 is complete control) (bamyardgrass; [10]): 0 | Barnyardgrass plant response rating (0 to 10 scale, 0 is no effect, 10 is complete control) (bamyardgrass; [11]): 4 | Barnyardgrass plant response rating (bamyardgrass; [12]): 9
